Tests used:
[1] = Area under the curve determinations of plasma levels in rats (rrAUC); assay type: in vivo; conditions: rapid rat AUC of the drug (parent) in plasma; oral 10 mg/kg, fasted rats, blood 0.5-6 h post-dosing
Description: To gain insight into the pharmacokinetic properties of the compounds of formula (I), plasma levels of the compounds in rats were determined according to the protocol described in Korfmacher, W. A,; Cox, K. A.; Ng, K. J.; Veals, J.; Hsieh, Y.; Wainhaus, S.; Broske, L; Prelusky, D.; Nomeir, A.; White, R. E. Rapid Commun. Mass Spectrorn, 2001, 15, 335. Briefly, rats, after an overnight fast, were dosed orally with the test compound at a dose of 10 mg/kg in a 5 mL/kg dose volume. Blood was collected at 0.5, 1, 2, 3, 4, and 6 h post-dosing. Mass spectrometry using high performance liquid chromatography was used to identify and measure the concentrations of the test compounds in the plasma at the various time points. The parent ion of each test compound was used to identify and quantitate the compounds in plasma.

[2] = test system: TNF-α production from human whole blood; test: Inhibition of TNF-α production from human whole blood (hWBA); assay type: cell-based; conditions: human whole blood diluted 1:1, 1 h pre-incubation, LPS, 3.5 h, TNF-α by ELISA; N/A = Not Active
Description: The compounds' ability to inhibit TACE activity can also be determined in human whole blood using the assay conditions described n Example 15 below.
Human whole blood was diluted 1:1 with serum free medium (RPMI, L-glutamine, Pen-Strep, HEPES) and incubated with a test compound in a final volume of 360 μl for 1 h at 37° C. Forty microliters of LPS (10 μg/mL) was then added. Supernatant was collected after 3.5 h incubation and the concentration of TNF-α was determined by ELISA (R&D Systems). The concentration of the test compound which inhibits 50% of the amount of TNF-α from the untreated control was determined.

PK (rrAUC) parent [1] | IC50 [2] [µM] | Compound
13101 nM·h | 0.281 | COc1ccc2c(c1)C(=O)N(C[C@@]1(c3cc4ncccc4o3)NC(=O)N(COC(=O)C(C)(C)C)C1=O)C2 [Compound 1]
13539 nM·h | 0.273 | COc1ccc2c(c1)C(=O)N(C[C@@]1(c3cc4cnccc4o3)NC(=O)N(COC(=O)C(C)(C)C)C1=O)C2 [Compound 2]
19953 nM·h | 0.061 | CCN1CCN(c2ccc3oc([C@]4(CN5Cc6ccc(OC)c(F)c6C5=O)NC(=O)N(COC(=O)C(C)(C)C)C4=O)cc3n2)CC1 [Compound 3]
8621 nM·h | 0.092 | COc1ccc2c(c1F)C(=O)N(C[C@@]1(c3cc4nc(N5CCN(C)CC5)ccc4o3)NC(=O)N(COC(=O)C(C)(C)C)C1=O)C2 [Compound 4]
121 nM·h | 0.104 | COc1ccc2c(c1F)C(=O)N(C[C@@]1(c3cc4nc(N5CCNC(=O)C5)ccc4o3)NC(=O)N(COC(=O)C(C)(C)C)C1=O)C2 [Compound 5]
2283 nM·h | 0.447 | COc1ccc2c(c1F)C(=O)N(C[C@@]1(c3cc4nc(N5CCC5=O)ccc4o3)NC(=O)N(COC(=O)C(C)(C)C)C1=O)C2 [Compound 6]
4557 nM·h | 0.192 | COc1ccc2c(c1F)C(=O)N(C[C@@]1(c3cc4nc(N5C(=O)CCC5C)ccc4o3)NC(=O)N(COC(=O)C(C)(C)C)C1=O)C2 (stereo partly drawn) [Compound 9]
1202 nM·h | 0.266 | COc1ccc2c(c1)C(=O)N(C[C@@]1(c3cc4nc(N5C(=O)CCC5C)ccc4o3)NC(=O)N(COC(=O)C(C)(C)C)C1=O)C2 (stereo partly drawn) [Compound 10]
1827 nM·h | 0.235 | COc1ccc2c(c1F)C(=O)N(C[C@@]1(c3cc4c(C)nccc4o3)NC(=O)N(COC(=O)C(C)(C)C)C1=O)C2 [Compound 11]
45,213 nM · h | 0.187 | COc1ccc2c(c1F)C(=O)N(C[C@@]1(c3cc4cnc(C)cc4o3)NC(=O)N(COC(=O)C(C)(C)C)C1=O)C2 [Compound 12]
0 nM·h | 0.275 | COc1ccc2c(c1F)C(=O)N(C[C@@]1(C#Cc3ccc4c(=O)[nH][nH]c4c3)NC(=O)N(COC(=O)C(C)(C)C)C1=O)C2 [Compound 14]
249 nM·h | 0.141 | COc1ccc2c(c1F)C(=O)N(C[C@@]1(c3cc4nc(-c5cn[nH]c5)ccc4o3)NC(=O)N(COC(=O)C(C)(C)C)C1=O)C2 [Compound 16]
2005 nM·h | 0.626 | COc1ccc2c(c1)C(=O)N(C[C@@]1(c3cc4nc(-c5c(C)nn(C)c5C)ccc4o3)NC(=O)N(COC(=O)C(C)(C)C)C1=O)C2 [Compound 17]
351 nM·h | 0.178 | COc1ccc2c(c1F)C(=O)N(C[C@@]1(c3cc4nc(N)ccc4o3)NC(=O)N(COC(=O)C(C)(C)C)C1=O)C2 [Compound 18]
94 nM·h | 0.101 | COc1ccc2c(c1F)C(=O)N(C[C@@]1(c3cc4ncc(C(N)=O)cc4o3)NC(=O)N(COC(=O)C(C)(C)C)C1=O)C2 [Compound 19]
148 nM·h | 0.282 | COc1ccc2c(c1)C(=O)N(C[C@@]1(c3cc4nc(N5CCCNC5=O)ccc4o3)NC(=O)N(COC(=O)C(C)(C)C)C1=O)C2 [Compound 20]
2684 nM·h | 0.339 | COc1ccc2c(c1)C(=O)N(C[C@@]1(c3cc4nc(N5CC[C@@H](O)C5)ccc4o3)NC(=O)N(COC(=O)C(C)(C)C)C1=O)C2 [Compound 21]
823 nM·h | 2.82 | COc1ccc2c(c1F)C(=O)N(C[C@@]1(c3cc4c(OC(C)=O)nccc4o3)NC(=O)N(COC(=O)C(C)(C)C)C1=O)C2 [Compound 22]
655 nM·h | 0.176 | CCN1CCN(c2ccc3oc([C@]4(CN5Cc6ccc(OC)cc6C5=O)NC(=O)N(COC(=O)C(C)(C)C)C4=O)cc3n2)CC1 [Compound 24]
0 nM·h | 0.212 | COc1ccc2c(c1)C(=O)N(C[C@@]1(C#Cc3ccc(N4CCNCC4)cc3)NC(=O)N(COC(=O)C(C)(C)C)C1=O)C2 [Compound 25]
0 nM·h | 0.645 | COc1ccc2c(c1)C(=O)N(C[C@@]1(c3cc4nc(NS(C)(=O)=O)ccc4o3)NC(=O)N(COC(=O)C(C)(C)C)C1=O)C2 [Compound 26]
0 nM·h | 0.94 | COc1ccc2c(c1)C(=O)N(C[C@@]1(c3cc4cc(-c5cc(=O)[nH]c(N)n5)ccc4o3)NC(=O)N(COC(=O)C(C)(C)C)C1=O)C2 [Compound 27]
0 nM·h | 0.156 | COc1ccc2c(c1)C(=O)N(C[C@@]1(c3cc4nc(N5CCNCC5)ccc4o3)NC(=O)N(COC(=O)C(C)(C)C)C1=O)C2 [Compound 28]
– | 0.135 | COc1ccc2c(c1F)C(=O)N(C[C@@]1(c3cc4cc5c(cc4o3)C(=O)NCC5)NC(=O)N(COC(=O)C(C)(C)C)C1=O)C2 [Compound 32]
– | 0.079 | COc1ccc2c(c1F)C(=O)N(C[C@@]1(c3cc4nc(C(N)=O)ccc4o3)NC(=O)N(COC(=O)C(C)(C)C)C1=O)C2 [Compound 35]
– | 0.258 | CCCN1CCN(c2ccc3oc([C@]4(CN5Cc6ccc(OC)c(F)c6C5=O)NC(=O)N(COC(=O)C(C)(C)C)C4=O)cc3n2)CC1 [Compound 40]
– | 0.159 | COc1ccc2c(c1F)C(=O)N(C[C@]1(c3cc4nc(C(N)=O)ccc4o3)C(=O)N(COC(=O)C(C)(C)C)C(=O)N1COC(=O)C(C)(C)C)C2 [Compound 81]
– | 0.381 | CCOc1ccc2c(c1F)C(=O)N(C[C@]1(c3cc4nc(N5CCN(CC)CC5)ccc4o3)C(=O)N(COC(=O)C(C)(C)C)C(=O)N1COC(=O)C(C)(C)C)C2 [Compound 85]

Continued, molecule first:

Compound | PK (rrAUC) parent [1] | IC50 [2] [µM]
COc1ccc2c(c1)C(=O)N(C[C@@]1(C#Cc3ccc4c(=O)[nH][nH]c4c3)NC(=O)N(COC(=O)C(C)(C)C)C1=O)C2 [Compound 13] | 0 nM·h | 0.213
COc1ccc2c(c1)C(=O)N(C[C@@]1(C#Cc3ccc(C(N)=O)cc3)NC(=O)N(COC(=O)C(C)(C)C)C1=O)C2 [Compound 15] | 0 nM·h | 0.188
COc1ccc2c(c1)C(=O)N(C[C@@]1(c3cc4cnccc4o3)NC(=O)N(COC(=O)C3(C)CCCCC3)C1=O)C2 [Compound 35.2] | – | 0.0352
COc1ccc2c(c1)C(=O)N(C[C@@]1(C#Cc3ccc(-c4ncccc4OC(=O)C(C)(C)C)cc3)NC(=O)N(COC(=O)C(C)(C)C)C1=O)C2 [Compound 42] | – | 0.794
CCOCCOC(=O)OCN1C(=O)N[C@@](CN2Cc3ccc(OC)cc3C2=O)(c2cc3cnccc3o2)C1=O [Compound 63.6] | – | 0.208
COCCOCC(=O)OCN1C(=O)N[C@@](CN2Cc3ccc(OC)cc3C2=O)(c2cc3cnccc3o2)C1=O [Compound 67.2] | – | 0.313
COc1ccc2c(c1)C(=O)N(C[C@@]1(c3cc4cnccc4o3)NC(=O)N(C(C)OC(=O)N(C)C)C1=O)C2 (stereo partly drawn) [Compound 70] | – | 0.774
COc1ccc2c(c1)C(=O)N(C[C@@]1(c3cc4cnccc4o3)NC(=O)N(C(C)OC(=O)N3CCN(C)CC3)C1=O)C2 (stereo partly drawn) [Compound 71] | – | 9.92
CCOP(=O)(OCC)OCN1C(=O)N[C@@](CN2Cc3ccc(OC)c(F)c3C2=O)(c2cc3nc(N4CCN(CC)CC4)ccc3o2)C1=O [Compound 73] | – | 0.255
COc1ccc2c(c1)C(=O)N(C[C@@]1(c3cc4cnccc4o3)NC(=O)N(COP(=O)(O)O)C1=O)C2 [Compound 74.1] | – | 0.72
COc1ccc2c(c1)C(=O)N(C[C@@]1(c3cc4cnccc4o3)NC(=O)N(COP(=O)(OCc3ccccc3)OCc3ccccc3)C1=O)C2 [Compound 74] | – | 3.15
COc1ccc2c(c1)C(=O)N(C[C@]1(c3cc4ncccc4o3)C(=O)N(C(C)OC(C)=O)C(=O)N1C(C)=O)C2 (stereo partly drawn) [Compound 78] | – | 2.12
COc1ccc2c(c1)C(=O)N(C[C@]1(c3cc4ncccc4o3)C(=O)N(COC(=O)C(C)(C)C)C(=O)N1COC(=O)C(C)(C)C)C2 [Compound 80] | 3092 nM·h | –
CCCC(=O)OCN1C(=O)N(C(=O)CCC)[C@@](CN2Cc3ccc(OC)cc3C2=O)(c2cc3cnccc3o2)C1=O [Compound 82] | 783 nM·h | –
COc1ccc2c(c1)C(=O)N(C[C@]1(c3cc4cnccc4o3)C(=O)N(COC(=O)c3ccccc3)C(=O)N1C(=O)c1ccccc1)C2 [Compound 84] | 126 nM·h | –
COc1ccc2c(c1)C(=O)N(C[C@]1(c3cc4cnccc4o3)C(=O)N(COC(=O)C3CCCCC3)C(=O)N1C(=O)C1CCCCC1)C2 [Compound 87] | 0 nM·h | –
COc1ccc2c(c1)C(=O)N(C[C@]1(c3cc4cnccc4o3)C(=O)N(C(C)OC(=O)OC3COCOC3)C(=O)N1C(=O)OC1COCOC1)C2 (stereo partly drawn) [Compound 88] | 0 nM·h | –
CCOCCOC(=O)OCN1C(=O)N(C(=O)OCCOCC)[C@@](CN2Cc3ccc(OC)cc3C2=O)(c2cc3cnccc3o2)C1=O [Compound 89.1] | – | 3.15
COc1ccc2c(c1)C(=O)N(C[C@]1(c3cc4cnccc4o3)C(=O)N(COC(=O)OCCN(C)C(=O)OCc3ccccc3)C(=O)N1C(=O)OCCN(C)C(=O)OCc1ccccc1)C2 [Compound 89] | – | 4.89

— patent publication US8859529B2, “Compounds for the treatment of inflammatory disorders” (Merck Sharp & Dohme Corp., priority 2008, dated 2014)
